Experimental data from the supplement of paper PMC11208160.

Experiment: recombinant barcode read abundance after kanamycin selection (control-corrected) (log10(CPM+1)); higher = more efficient recombination; sequences stand for … in AGTGCAGAGAAAATCGGCCAGTTTTCTCTGCCTGCAGTCCGCATGCCGT…AGATTTATGCAGCGGACTGCCTTTCTCCCAAAGTGATAAACCGGACAGTATCATGGACCGGTTTTCCCGGTAATCCGTATTTGCAAGGTTGGTTTCACT; site = the 11-nt target
Procedure, shortened: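 Values are log10(CPM+1) from a pooled E. coli screen of targets paired with IS621 bridge RNA target-binding loops. Recombination efficiency here means counts per million of recombinant-junction barcodes, averaged and control-corrected. Plates were chloramphenicol/ampicillin LB agar for the control and chloramphenicol/ampicillin/kanamycin with 0.1 mM IPTG, two replicates each.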
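Note: IS621 recombinase and bridge RNA in Escherichia coli cells.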

Row | Sequence | recombinant barcode read abundance (log10)
1 | GAGTGGCCTTGGGTTCTAACCTGTTGCCT (site GAGTGGCCTAG) | 0.346
2 | GAGTGGCCTTGGGTTCTAACCTGTTGCCT (site GAGTGGCCTAT) | 0.182
3 | GAGTGGCCTTGGGTTCTAACCTGTTGCGA (site GAGTGGCCTTC) | 2.02
4 | GAGTGGCCTTGGGTTCTAACCTGTTGCGA (site TCCGTATCTCT) | 0.0392
5 | GAGTGGCCTTGGGTTCTAACCTGTTGCGT (site GAGTGGCCTAA) | 0.314
6 | GAGTGGCCTTGGGTTCTAACCTGTTGCGT (site GAGTGGCCTAC) | 2.4
7 | GAGTGGCCTTGGGTTCTAACCTGTTGCGT (site GAGTGGCCTAG) | 0.227
8 | GAGTGGCCTTGGGTTCTAACCTGTTGCGT (site GAGTGGCCTAT) | 1.32
9 | GAGTTCCCTTGGGTTCTAACCTGTTGCCC (site ATTACTTCTAA) | 0.0963
10 | GAGTTCCCTTGGGTTCTAACCTGTTGCCC (site GAGTTCCCTGG) | 1.54
11 | GAGTTTCCTTGGGTTCTAACCTGTTGCGT (site GAGTTACCTAC) | 0.142
12 | GAGTTTCCTTGGGTTCTAACCTGTTGCGT (site GAGTTCCCTAC) | 0.278
13 | GAGTTTCCTTGGGTTCTAACCTGTTGCGT (site GAGTTGCCTAC) | 0.0725
14 | GAGTTTCCTTGGGTTCTAACCTGTTGCGT (site GAGTTTCCTAC) | 0.791
15 | GATACAGCTTGGGTTCTAACCTGTTGCCT (site GAAACAGCTAG) | 0.0665
16 | GATACAGCTTGGGTTCTAACCTGTTGCCT (site GACACAGCTAG) | 0.444
17 | GATACAGCTTGGGTTCTAACCTGTTGCCT (site GAGACAGCTAG) | 0.155
18 | GATACAGCTTGGGTTCTAACCTGTTGCCT (site GATACAGCTAG) | 1.16
19 | GATACGACTTGGGTTCTAACCTGTTGCCT (site GATACGACTAG) | 1.14
20 | GATACGACTTGGGTTCTAACCTGTTGCCT (site GATACGCCTAG) | 0.748
21 | GATACGACTTGGGTTCTAACCTGTTGCCT (site GATACGGCTAG) | 0.0662
22 | GATACGACTTGGGTTCTAACCTGTTGCCT (site GATACGTCTAG) | 0.00976

Row | Sequence | recombinant barcode read abundance (log10)
23 | GATACTACTTGGGTTCTAACCTGTTGCAG (site GATACTACTCT) | 0.17
24 | GATACTACTTGGGTTCTAACCTGTTGCAG (site GATGCTACTCT) | 0.11
25 | GATAGACCTTGGGTTCTAACCTGTTGCCT (site CATAGACCTAG) | 0.126
26 | GATAGACCTTGGGTTCTAACCTGTTGCCT (site GATAGACCTAG) | 1.57
27 | GATAGCTCTTGGGTTCTAACCTGTTGCCT (site AATAGCTCTAG) | 0.332
28 | GATAGCTCTTGGGTTCTAACCTGTTGCCT (site CATAGCTCTAG) | 0.0838
29 | GATAGCTCTTGGGTTCTAACCTGTTGCCT (site GATAGCTCTAG) | 0.998
30 | GATAGCTCTTGGGTTCTAACCTGTTGCCT (site TATAGCTCTAG) | 0.509
31 | GATAGGGCTTGGGTTCTAACCTGTTGCCT (site GATAGGGCTAG) | 1.09
32 | GATAGGGCTTGGGTTCTAACCTGTTGCCT (site TTATACACTGA) | 0.135
33 | GATCAGCCTTGGGTTCTAACCTGTTGCCT (site GATCAGCCTAG) | 0.445
34 | GATCAGCCTTGGGTTCTAACCTGTTGCCT (site GATCTGCCTAG) | 0.063
35 | GATCCTACTTGGGTTCTAACCTGTTGCCA (site GATCCTACTTG) | 0.315
36 | GATCCTACTTGGGTTCTAACCTGTTGCCA (site GATGCTACTTG) | 0.0449
37 | GATCGAACTTGGGTTCTAACCTGTTGCCT (site AATCGAACTAG) | 0.15
38 | GATCGAACTTGGGTTCTAACCTGTTGCCT (site GATCGAACTAG) | 0.204
39 | GATCGAGCTTGGGTTCTAACCTGTTGCAG (site GATCGAGCTCT) | 1.42
40 | GATCGAGCTTGGGTTCTAACCTGTTGCAG (site TGGACGACTAA) | 0.178
41 | GATCGAGCTTGGGTTCTAACCTGTTGCCT (site GATCGAGCTAG) | 1.12
42 | GATCGAGCTTGGGTTCTAACCTGTTGCCT (site GATCGCGCTAG) | 0
43 | GATCGCGCTTGGGTTCTAACCTGTTGCCT (site GATCGAGCTAG) | 0.133
44 | GATCGCGCTTGGGTTCTAACCTGTTGCCT (site GATCGCGCTAG) | 0.231

Row | Sequence | recombinant barcode read abundance (log10)
45 | GATCTAGCTTGGGTTCTAACCTGTTGCAT (site CATATAGCTAT) | 0.0793
46 | GATCTAGCTTGGGTTCTAACCTGTTGCAT (site GATCTAGCTAT) | 0.574
47 | GATGAGTCTTGGGTTCTAACCTGTTGCTT (site GATGAGTCTAA) | 1.8
48 | GATGAGTCTTGGGTTCTAACCTGTTGCTT (site GATGAGTCTAG) | 1.34
49 | GATGATACTTGGGTTCTAACCTGTTGCGT (site GATGATACTAC) | 2.51
50 | GATGATACTTGGGTTCTAACCTGTTGCGT (site GTTTATACTAC) | 0.0738
51 | GATGCCACTTGGGTTCTAACCTGTTGCCT (site GATCCCACTAG) | 0.182
52 | GATGCCACTTGGGTTCTAACCTGTTGCCT (site GATGCCACTAG) | 1.53
53 | GATGGTACTTGGGTTCTAACCTGTTGCAT (site ACGCACTCTCG) | 0.0471
54 | GATGGTACTTGGGTTCTAACCTGTTGCAT (site GATGGTACTAT) | 1.46
55 | GATGTATCTTGGGTTCTAACCTGTTGCCT (site GAGGTAGCTAG) | 0.0384
56 | GATGTATCTTGGGTTCTAACCTGTTGCCT (site GATGTATCTAG) | 1.09
57 | GATTATTCTTGGGTTCTAACCTGTTGCCT (site GAATATTCTAG) | 0.0621
58 | GATTATTCTTGGGTTCTAACCTGTTGCCT (site GACTATTCTAG) | 0.0521
59 | GATTATTCTTGGGTTCTAACCTGTTGCCT (site GAGTATTCTAG) | 0.138
60 | GATTATTCTTGGGTTCTAACCTGTTGCCT (site GATTATTCTAG) | 0
61 | GATTCGACTTGGGTTCTAACCTGTTGCGT (site CTGGACCCTCG) | 0.0133
62 | GATTCGACTTGGGTTCTAACCTGTTGCGT (site GATTCGACTAC) | 1.02
63 | GATTCTCCTTGGGTTCTAACCTGTTGCAT (site GATTCTCCTAA) | 0.246
64 | GATTCTCCTTGGGTTCTAACCTGTTGCAT (site GATTCTCCTAC) | 0.143
65 | GATTCTCCTTGGGTTCTAACCTGTTGCAT (site GATTCTCCTAG) | 0.0815
66 | GATTCTCCTTGGGTTCTAACCTGTTGCAT (site GATTCTCCTAT) | 0.197
